#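 All cell lines were grown in 96-well plates and treated with compound for 48 hours. GI50: concentration for 50% inhibition of growth. TGI denotes the concentration required for complete inhibition of growth.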
# Key:
# Assay in all cases: inhibition of tumour cell growth, NCI panel, 48 h
# [1] = system: SNB-75 CNS
# [2] = system: UACC-257 melanoma
# [3] = system: HT29 colon
# [4] = system: HOP-92 NSCLC
# [5] = system: SF-539 CNS
# [6] = system: NCI/ADR-RES ovarian
# [7] = system: EKVX NSCLC
# [8] = system: OVCAR-3 ovarian
# [9] = system: SNB-19 CNS
# [10] = system: NCI-H522 lung
# [11] = system: MDA-MB-435
# [12] = system: SW-620 colon
# [13] = system: MDA-MB-231 breast
# [14] = system: MOLT-4 leukemia
# [15] = system: CCRF-CEM leukemia
# [16] = system: HOP-62 NSCLC
# [17] = system: CAKI-1 renal
# [18] = system: HCT-15 colon
# [19] = system: HL-60(TB) leukemia
# [20] = system: HCT-116 colon
# [21] = system: 786-0 renal
# [22] = system: SK-MEL-2 melanoma
# [23] = system: IGROV1 ovarian
# [24] = system: MALME-3M melanoma
# [25] = system: UACC-62 melanoma
# [26] = system: BT-549 breast
# [27] = system: SN12C renal
# [28] = system: RPMI-8226 leukemia
# [29] = system: SF-268 CNS
smiles,measurement,setting,value
COc1ccc(C2CC(c3cc(Cl)c(C)cc3O)=NN2c2ccc(S(N)(=O)=O)cc2)cc1OC (stereo not drawn),GI50,[1],2.7 µM
same,TGI,[1],97.2 µM
same,GI50,[2],4.22 µM
same,TGI,[2],19.7 µM
same,GI50,[3],2.24 µM
same,TGI,[3],6.48 µM
same,GI50,[4],1.81 µM
same,TGI,[4],7.42 µM
same,GI50,[5],2.1 µM
same,TGI,[5],4.75 µM
same,GI50,[6],3.39 µM
same,TGI,[6],14.1 µM
same,GI50,[7],4.15 µM
same,TGI,[7],> 100 µM
same,GI50,[8],3.37 µM
same,TGI,[8],9.8 µM
same,GI50,[9],5.53 µM
same,TGI,[9],89.3 µM
same,GI50,[10],2.95 µM
same,TGI,[10],9.61 µM
same,GI50,[11],3.97 µM
same,TGI,[11],24 µM
same,GI50,[12],4.08 µM
same,TGI,[12],26.6 µM
same,GI50,[13],3.81 µM
same,TGI,[13],12.5 µM
same,GI50,[14],5.29 µM
same,TGI,[14],> 100 µM
same,GI50,[15],5.35 µM
same,TGI,[15],> 100 µM
same,GI50,[16],3.92 µM
same,TGI,[16],14.1 µM
same,GI50,[17],2.78 µM
same,TGI,[17],> 100 µM
same,GI50,[18],3.32 µM
same,TGI,[18],20.2 µM
same,GI50,[19],3.42 µM
same,TGI,[19],> 100 µM
same,GI50,[20],1.72 µM
same,TGI,[20],4.36 µM
same,GI50,[21],2.37 µM
same,TGI,[21],5.04 µM
same,GI50,[22],5.87 µM
same,TGI,[22],32.7 µM
same,GI50,[23],2.34 µM
same,TGI,[23],5.46 µM
same,GI50,[24],3.65 µM
same,TGI,[24],24.6 µM
same,GI50,[25],3.13 µM
same,TGI,[25],12.9 µM
same,GI50,[26],3.03 µM
same,TGI,[26],13.4 µM
same,GI50,[27],3.7 µM
same,TGI,[27],30 µM
same,GI50,[28],4.1 µM
same,TGI,[28],> 100 µM
same,GI50,[29],4.74 µM
same,TGI,[29],> 100 µM

# — PubChem BioAssay (NCI)
